US20260027116A1, “Methods of Treating Chronic Graft-Versus-Host Disease Following Allogeneic Hematopoietic Stem Cell Transplantation” (Kadmon Corporation, LLC, priority 2022, published 2026)

Test system: lung function
Assay: Example 1: percent predicted HGB corrected DLco change from baseline
Type: in vivo, human
Conditions: mean (SD)
Text: Change From Baseline in Percent Predicted Hemoglobin (HGB) Corrected Diffusing Capacity of Lung for Carbon Monoxide (DLco) at Each Specified Time Points. DLco is a measurement of the ability of the lungs to transfer gases from the air to the blood. Change from baseline in diffusing capacity of the lung for carbon monoxide (percent predicted hemoglobin level corrected) was reported for this measure. Baseline value was defined as valid and last non-missing value obtained within 28 days prior to participant receiving first study medication. EOT visit was performed within 3 days after the participant's last dose of study drug. […] Analysis was performed on mITT population. Here, ‘number analyzed’=participants with available data for each specified category. Here, ‘O’ in the number analyzed field signifies that none of the participants were available for the analysis at the specified time points.

Q: Which results are given for `CC(C)NC(=O)COc1cccc(-c2nc(Nc3ccc4[nH]ncc4c3)c3ccccc3n2)c1` [Belumosudil, 2-{3-[4-(1H-indazol-5-ylamino)-2-quinazolinyl]phenoxy}-N-(propan-2-yl) acetamide]?
A: Change From Baseline in Percent Predicted Hemoglobin (HGB) Corrected Diffusing Capacity of Lung for Carbon Monoxide (DLco) (Cohort 1: 200 mg QD, Cycle 3, Day 1): 4.545 (22.991) Percent Predicted HGB Corrected DLco; Change From Baseline in Percent Predicted Hemoglobin (HGB) Corrected Diffusing Capacity of Lung for Carbon Monoxide (DLco) (Cohort 1: 200 mg QD, Cycle 5, Day 1): 4.635 (23.989) Percent Predicted HGB Corrected DLco; Change From Baseline in Percent Predicted Hemoglobin (HGB) Corrected Diffusing Capacity of Lung for Carbon Monoxide (DLco) (Cohort 1: 200 mg QD, Cycle 7, Day 1): 1.521 (19.836) Percent Predicted HGB Corrected DLco; Change From Baseline in Percent Predicted Hemoglobin (HGB) Corrected Diffusing Capacity of Lung for Carbon Monoxide (DLco) (Cohort 1: 200 mg QD, Cycle 9, Day 1): −4.514 (7.401) Percent Predicted HGB Corrected DLco; Change From Baseline in Percent Predicted Hemoglobin (HGB) Corrected Diffusing Capacity of Lung for Carbon Monoxide (DLco) (Cohort 1: 200 mg QD, Cycle 11, Day 1): −0.625 (7.262) Percent Predicted HGB Corrected DLco; Change From Baseline in Percent Predicted Hemoglobin (HGB) Corrected Diffusing Capacity of Lung for Carbon Monoxide (DLco) (Cohort 1: 200 mg QD, Cycle 12, Day 1): 0.531 (—) Percent Predicted HGB Corrected DLco; Change From Baseline in Percent Predicted Hemoglobin (HGB) Corrected Diffusing Capacity of Lung for Carbon Monoxide (DLco) (Cohort 1: 200 mg QD, Cycle 13, Day 1): −5.548 (12.175) Percent Predicted HGB Corrected DLco; Change From Baseline in Percent Predicted Hemoglobin (HGB) Corrected Diffusing Capacity of Lung for Carbon Monoxide (DLco) (Cohort 1: 200 mg QD, Cycle 14, Day 1): 12.916 (—) Percent Predicted HGB Corrected DLco; Change From Baseline in Percent Predicted Hemoglobin (HGB) Corrected Diffusing Capacity of Lung for Carbon Monoxide (DLco) (Cohort 1: 200 mg QD, Cycle 15, Day 1): 0.228 (15.731) Percent Predicted HGB Corrected DLco; Change From Baseline in Percent Predicted Hemoglobin (HGB) Corrected Diffusing Capacity of Lung for Carbon Monoxide (DLco) (Cohort 1: 200 mg QD, Cycle 16, Day 1): 48.465 (—) Percent Predicted HGB Corrected DLco; Change From Baseline in Percent Predicted Hemoglobin (HGB) Corrected Diffusing Capacity of Lung for Carbon Monoxide (DLco) (Cohort 1: 200 mg QD, Cycle 17, Day 1): −1.018 (9.226) Percent Predicted HGB Corrected DLco; Change From Baseline in Percent Predicted Hemoglobin (HGB) Corrected Diffusing Capacity of Lung for Carbon Monoxide (DLco) (Cohort 1: 200 mg QD, Cycle 19, Day 1): −2.293 (5.763) Percent Predicted HGB Corrected DLco; Change From Baseline in Percent Predicted Hemoglobin (HGB) Corrected Diffusing Capacity of Lung for Carbon Monoxide (DLco) (Cohort 1: 200 mg QD, Cycle 21, Day 1): −2.778 (8.187) Percent Predicted HGB Corrected DLco; Change From Baseline in Percent Predicted Hemoglobin (HGB) Corrected Diffusing Capacity of Lung for Carbon Monoxide (DLco) (Cohort 1: 200 mg QD, Cycle 23, Day 1): 0.354 (1.844) Percent Predicted HGB Corrected DLco; Change From Baseline in Percent Predicted Hemoglobin (HGB) Corrected Diffusing Capacity of Lung for Carbon Monoxide (DLco) (Cohort 1: 200 mg QD, Cycle 24, Day 1): 6.945 (—) Percent Predicted HGB Corrected DLco; Change From Baseline in Percent Predicted Hemoglobin (HGB) Corrected Diffusing Capacity of Lung for Carbon Monoxide (DLco) (Cohort 1: 200 mg QD, Cycle 25, Day 1): −4.461 (19.865) Percent Predicted HGB Corrected DLco; Change From Baseline in Percent Predicted Hemoglobin (HGB) Corrected Diffusing Capacity of Lung for Carbon Monoxide (DLco) (Cohort 1: 200 mg QD, Cycle 26, Day 1): 4.715 (—) Percent Predicted HGB Corrected DLco; Change From Baseline in Percent Predicted Hemoglobin (HGB) Corrected Diffusing Capacity of Lung for Carbon Monoxide (DLco) (Cohort 1: 200 mg QD, Cycle 27, Day 1): −8.047 (24.788) Percent Predicted HGB Corrected DLco; Change From Baseline in Percent Predicted Hemoglobin (HGB) Corrected Diffusing Capacity of Lung for Carbon Monoxide (DLco) (Cohort 1: 200 mg QD, Cycle 29, Day 1): −6.701 (1.671) Percent Predicted HGB Corrected DLco; Change From Baseline in Percent Predicted Hemoglobin (HGB) Corrected Diffusing Capacity of Lung for Carbon Monoxide (DLco) (Cohort 1: 200 mg QD, Cycle 31, Day 1): 2.343 (20.988) Percent Predicted HGB Corrected DLco; Change From Baseline in Percent Predicted Hemoglobin (HGB) Corrected Diffusing Capacity of Lung for Carbon Monoxide (DLco) (Cohort 1: 200 mg QD, Cycle 32, Day 1): 5.586 (—) Percent Predicted HGB Corrected DLco; Change From Baseline in Percent Predicted Hemoglobin (HGB) Corrected Diffusing Capacity of Lung for Carbon Monoxide (DLco) (Cohort 1: 200 mg QD, Cycle 33, Day 1): 9.901 (9.954) Percent Predicted HGB Corrected DLco; Change From Baseline in Percent Predicted Hemoglobin (HGB) Corrected Diffusing Capacity of Lung for Carbon Monoxide (DLco) (Cohort 1: 200 mg QD, Cycle 34, Day 1): 4.863 (—) Percent Predicted HGB Corrected DLco; Change From Baseline in Percent Predicted Hemoglobin (HGB) Corrected Diffusing Capacity of Lung for Carbon Monoxide (DLco) (Cohort 1: 200 mg QD, Cycle 35, Day 1): 13.867 (1.309) Percent Predicted HGB Corrected DLco; Change From Baseline in Percent Predicted Hemoglobin (HGB) Corrected Diffusing Capacity of Lung for Carbon Monoxide (DLco) (Cohort 1: 200 mg QD, Cycle 36, Day 1): 4.166 (—) Percent Predicted HGB Corrected DLco; Change From Baseline in Percent Predicted Hemoglobin (HGB) Corrected Diffusing Capacity of Lung for Carbon Monoxide (DLco) (Cohort 1: 200 mg QD, Cycle 37, Day 1): 9.306 (—) Percent Predicted HGB Corrected DLco; Change From Baseline in Percent Predicted Hemoglobin (HGB) Corrected Diffusing Capacity of Lung for Carbon Monoxide (DLco) (Cohort 1: 200 mg QD, Cycle 39, Day 1): 14.754 (0.649) Percent Predicted HGB Corrected DLco; Change From Baseline in Percent Predicted Hemoglobin (HGB) Corrected Diffusing Capacity of Lung for Carbon Monoxide (DLco) (Cohort 1: 200 mg QD, Cycle 40, Day 1): 5.586 (—) Percent Predicted HGB Corrected DLco; Change From Baseline in Percent Predicted Hemoglobin (HGB) Corrected Diffusing Capacity of Lung for Carbon Monoxide (DLco) (Cohort 1: 200 mg QD, Cycle 41, Day 1): 22.884 (—) Percent Predicted HGB Corrected DLco; Change From Baseline in Percent Predicted Hemoglobin (HGB) Corrected Diffusing Capacity of Lung for Carbon Monoxide (DLco) (Cohort 1: 200 mg QD, Cycle 43, Day 1): 15.213 (—) Percent Predicted HGB Corrected DLco; Change From Baseline in Percent Predicted Hemoglobin (HGB) Corrected Diffusing Capacity of Lung for Carbon Monoxide (DLco) (Cohort 1: 200 mg QD, Cycle 49, Day 1): −3.599 (—) Percent Predicted HGB Corrected DLco; Change From Baseline in Percent Predicted Hemoglobin (HGB) Corrected Diffusing Capacity of Lung for Carbon Monoxide (DLco) (Cohort 1: 200 mg QD, Cycle 51, Day 1): 11.734 (—) Percent Predicted HGB Corrected DLco; Change From Baseline in Percent Predicted Hemoglobin (HGB) Corrected Diffusing Capacity of Lung for Carbon Monoxide (DLco) (Cohort 1: 200 mg QD, Cycle 53, Day 1): 10.292 (—) Percent Predicted HGB Corrected DLco; Change From Baseline in Percent Predicted Hemoglobin (HGB) Corrected Diffusing Capacity of Lung for Carbon Monoxide (DLco) (Cohort 1: 200 mg QD, Cycle 55, Day 1): 16.550 (—) Percent Predicted HGB Corrected DLco; Change From Baseline in Percent Predicted Hemoglobin (HGB) Corrected Diffusing Capacity of Lung for Carbon Monoxide (DLco) (Cohort 1: 200 mg QD, Cycle 61, Day 1): 17.682 (—) Percent Predicted HGB Corrected DLco; Change From Baseline in Percent Predicted Hemoglobin (HGB) Corrected Diffusing Capacity of Lung for Carbon Monoxide (DLco) (Cohort 1: 200 mg QD, Cycle 62, Day 1): 4.170 (—) Percent Predicted HGB Corrected DLco; Change From Baseline in Percent Predicted Hemoglobin (HGB) Corrected Diffusing Capacity of Lung for Carbon Monoxide (DLco) (Cohort 1: 200 mg QD, Cycle 63, Day 1): 26.215 (—) Percent Predicted HGB Corrected DLco; Change From Baseline in Percent Predicted Hemoglobin (HGB) Corrected Diffusing Capacity of Lung for Carbon Monoxide (DLco) (Cohort 1: 200 mg QD, Cycle 67, Day 1): 41.384 (—) Percent Predicted HGB Corrected DLco; Change From Baseline in Percent Predicted Hemoglobin (HGB) Corrected Diffusing Capacity of Lung for Carbon Monoxide (DLco) (Cohort 1: 200 mg QD, EOT): −1.962 (11.426) Percent Predicted HGB Corrected DLco; Change From Baseline in Percent Predicted Hemoglobin (HGB) Corrected Diffusing Capacity of Lung for Carbon Monoxide (DLco) (Cohort 2: 200 mg BID, Cycle 3, Day 1): −0.638 (7.059) Percent Predicted HGB Corrected DLco; Change From Baseline in Percent Predicted Hemoglobin (HGB) Corrected Diffusing Capacity of Lung for Carbon Monoxide (DLco) (Cohort 2: 200 mg BID, Cycle 5, Day 1): −4.462 (23.621) Percent Predicted HGB Corrected DLco; Change From Baseline in Percent Predicted Hemoglobin (HGB) Corrected Diffusing Capacity of Lung for Carbon Monoxide (DLco) (Cohort 2: 200 mg BID, Cycle 7, Day 1): 6.184 (9.436) Percent Predicted HGB Corrected DLco; Change From Baseline in Percent Predicted Hemoglobin (HGB) Corrected Diffusing Capacity of Lung for Carbon Monoxide (DLco) (Cohort 2: 200 mg BID, Cycle 8, Day 1): 3.554 (—) Percent Predicted HGB Corrected DLco; Change From Baseline in Percent Predicted Hemoglobin (HGB) Corrected Diffusing Capacity of Lung for Carbon Monoxide (DLco) (Cohort 2: 200 mg BID, Cycle 9, Day 1): 2.570 (8.902) Percent Predicted HGB Corrected DLco; Change From Baseline in Percent Predicted Hemoglobin (HGB) Corrected Diffusing Capacity of Lung for Carbon Monoxide (DLco) (Cohort 2: 200 mg BID, Cycle 10, Day 1): 4.343 (3.144) Percent Predicted HGB Corrected DLco; Change From Baseline in Percent Predicted Hemoglobin (HGB) Corrected Diffusing Capacity of Lung for Carbon Monoxide (DLco) (Cohort 2: 200 mg BID, Cycle 11, Day 1): 6.582 (10.695) Percent Predicted HGB Corrected DLco; Change From Baseline in Percent Predicted Hemoglobin (HGB) Corrected Diffusing Capacity of Lung for Carbon Monoxide (DLco) (Cohort 2: 200 mg BID, Cycle 12, Day 1): 4.076 (—) Percent Predicted HGB Corrected DLco; Change From Baseline in Percent Predicted Hemoglobin (HGB) Corrected Diffusing Capacity of Lung for Carbon Monoxide (DLco) (Cohort 2: 200 mg BID, Cycle 13, Day 1): 1.882 (7.522) Percent Predicted HGB Corrected DLco; Change From Baseline in Percent Predicted Hemoglobin (HGB) Corrected Diffusing Capacity of Lung for Carbon Monoxide (DLco) (Cohort 2: 200 mg BID, Cycle 14, Day 1): 0.358 (—) Percent Predicted HGB Corrected DLco; Change From Baseline in Percent Predicted Hemoglobin (HGB) Corrected Diffusing Capacity of Lung for Carbon Monoxide (DLco) (Cohort 2: 200 mg BID, Cycle 15, Day 1): 1.125 (5.927) Percent Predicted HGB Corrected DLco
